Measurements taken from patent US20090197897A1, “Novel Oxadiazole Derivatives and Their Use as Positive Allosteric Modulators of Metabotropic Glutamate Receptors” (Addex Pharma SA, priority 2005, published 2009).
pEC50: −log10 of the molar value.

Molecular target: T1, rat mGluR5 (Rattus norvegicus, UniProt P31424)
T1 construct: expressed in transfected cells
Test: mGluR5 assay on HEK-expressing rat mGluR5 (fluorescent cell based Ca2+ mobilization assay)
Conditions: HEK-293 cells stably expressing rat mGluR5; no co-addition of glutamate; mean of at least three independent experiments in duplicate; read-out: Ca++ Flux (mean EC50)
Method: mGluR5 Assay on HEK-Expressing Rat mGluR5
Positive functional expression of HEK-293 cells stably expressing rat mGluR5 receptor was determined by measuring intracellular Ca^2+ changes using a Fluorometric Imaging Plate Reader (FLIPR, Molecular Devices, Sunnyvale, Calif.) in response to glutamate or selective known mGluR5 agonists and antagonists. Rat mGluR5 RT-PCR products in HEK-293 cells were sequenced and found 100% identical to rat mGluR5 Genbank reference sequence (NM_017012). HEK-293 cells expressing rmGluR5 were maintained in media containing DMEM, dialyzed Fetal Bovine Serum (10%), Glutamax™ (2 mM), Penicillin (100 units/ml), Streptomycin (100 μg/ml), Geneticin (100 μg/ml) and Hygromycin-B (40 μg/ml) at 37° C./5% CO2.
After one day of incubation, cells were washed with assay buffer containing: 142 mM NaCl, 6 mM KCl, 1 mM […], 1 mM CaCl2, 20 mM HEPES, 1 g/L glucose, 0.125 mM sulfinpyrazone, pH 7.4. After 60 min of loading with 4 uM Fluo-4 (TefLabs, Austin, Tex.), the cells were washed three times with 50 μl of PBS Buffer and resuspended in 45 μl of assay Buffer. The plates were then transferred to a Fluorometric Imaging Plate Reader (FLIPR, Molecular Devices, Sunnyvale, Calif.) for the assessment of intracellular calcium flux. After monitoring the baseline fluorescence for 10 seconds, increasing concentrations of representative compound (from 0.01 to 60 μM) of the present invention diluted in Assay Buffer (15 μl of 4× dilutions) was added to the cell. The final DMSO concentration in the assay was 0.3%. In each experiment, fluorescence was then monitored as a function of time for 3 minutes and the data analyzed using Microsoft Excel and GraphPad Prism. Each data point was also measured two times.
Under these experimental conditions, this HEK-rat mGluR5 cell line is able to directly detect positive allosteric modulators without the need of co-addition of glutamate or mGluR5 agonist.
The concentration-response curves of representative compounds of the present invention were generated using the Prism GraphPad software (Graph Pad Inc, San Diego, USA). The curves were fitted to a four-parameter logistic equation:
(Y=Bottom+(Top−Bottom)/(1+10̂((Log EC50−X)*Hill Slope)
allowing determination of EC50 values.
The Table 1 below represents the mean EC50 obtained from at least three independent experiments of selected molecules performed in duplicate.

T1 sequence (P31424 21-1171 isoform P31424-2 limits assumed): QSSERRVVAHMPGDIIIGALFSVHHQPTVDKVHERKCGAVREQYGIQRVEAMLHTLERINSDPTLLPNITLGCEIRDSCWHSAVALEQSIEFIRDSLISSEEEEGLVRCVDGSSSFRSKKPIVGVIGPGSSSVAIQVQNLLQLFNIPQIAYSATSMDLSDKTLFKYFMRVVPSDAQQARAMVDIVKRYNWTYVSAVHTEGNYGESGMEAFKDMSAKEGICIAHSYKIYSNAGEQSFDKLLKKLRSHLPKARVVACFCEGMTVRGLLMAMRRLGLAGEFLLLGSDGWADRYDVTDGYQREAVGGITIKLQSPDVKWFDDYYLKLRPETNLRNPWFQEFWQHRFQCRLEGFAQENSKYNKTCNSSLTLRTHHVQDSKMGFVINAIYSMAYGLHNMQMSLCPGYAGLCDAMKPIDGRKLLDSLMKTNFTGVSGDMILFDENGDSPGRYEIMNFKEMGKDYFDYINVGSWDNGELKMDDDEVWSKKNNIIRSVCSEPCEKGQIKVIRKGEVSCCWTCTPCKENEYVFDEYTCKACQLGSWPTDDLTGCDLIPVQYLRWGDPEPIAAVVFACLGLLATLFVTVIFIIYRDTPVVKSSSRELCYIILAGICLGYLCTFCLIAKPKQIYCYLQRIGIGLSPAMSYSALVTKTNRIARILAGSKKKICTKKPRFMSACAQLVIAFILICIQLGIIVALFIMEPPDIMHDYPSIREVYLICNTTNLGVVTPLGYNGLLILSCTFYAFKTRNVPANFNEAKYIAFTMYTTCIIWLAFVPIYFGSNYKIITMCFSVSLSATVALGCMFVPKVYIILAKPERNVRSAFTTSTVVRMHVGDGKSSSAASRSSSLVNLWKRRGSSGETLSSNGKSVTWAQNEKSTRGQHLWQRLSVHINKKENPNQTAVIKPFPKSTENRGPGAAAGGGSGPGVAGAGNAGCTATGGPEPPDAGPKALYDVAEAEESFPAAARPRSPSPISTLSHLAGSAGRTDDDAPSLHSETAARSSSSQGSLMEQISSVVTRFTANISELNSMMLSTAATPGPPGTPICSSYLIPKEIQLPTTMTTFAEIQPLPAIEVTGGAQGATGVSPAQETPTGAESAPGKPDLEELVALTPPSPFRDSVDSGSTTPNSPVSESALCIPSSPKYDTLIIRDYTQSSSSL

pEC50 | Structure (SMILES)
5.00 to 6.00 | O=C(c1ccc(F)cc1)N1CCC=C(c2nc(-c3ccc(F)cc3)no2)C1 [Example 1, (4-Fluoro-phenyl)-{5-[3-(4-fluoro-phenyl)-[1,2,4]oxadiazol-5-yl]-3,6-dihydro-2H-pyridin-1-yl}-methanone]
5.00 to 6.00 | O=C(c1ccc(F)cc1)N1CCCC1Cc1nc(-c2ccc(F)cc2)no1 (stereo not drawn) [Example 2, (4-Fluoro-phenyl)-{2-[3-(4-fluoro-phenyl)-[1,2,4]oxadiazol-5-ylmethyl]-pyrrolidin-1-yl}-methanone]
5.00 to 6.00 | N#Cc1cc(C(=O)N2CCC[C@H](c3nc(-c4ccc(F)cc4)no3)C2)ccc1F [Example 3, 2-Fluoro-5-{(S)-3-[3-(4-fluoro-phenyl)-[1,2,4]oxadiazol-5-yl]-piperidine-1-carbonyl}-benzonitrile]
5.00 to 6.00 | O=C(C1CCSCC1)N1CCC[C@H](c2nc(-c3ccc(F)cc3)no2)C1 [Example 7, {(S)-3-[3-(4-Fluoro-phenyl)-[1,2,4]oxadiazol-5-yl]-piperidin-1-yl}-(tetrahydro-thiopyran-4-yl)-methanone]
5.00 to 6.00 | Cc1cc(F)ccc1C(=O)N1CCC[C@H](c2nc(-c3ccncc3)no2)C1 [Example 53, (4-Fluoro-2-methyl-phenyl)-[(S)-3-(3-pyridin-4-yl-[1,2,4]oxadiazol-5-yl)-piperidin-1-yl]-methanone]
< 5.00 | O=C(c1ccccc1NCc1ccccc1)N1CCC[C@H](c2nc(-c3ccc(F)cc3)no2)C1 [Example 55, (2-Benzylamino-phenyl)-{(S)-3-[3-(4-fluoro-phenyl)-[1,2,4]oxadiazol-5-yl]-piperidin-1-yl}-methanone]
> 6.00 | Cc1oncc1C(=O)N1CCC[C@H](c2nc(-c3ccccc3)no2)C1 [Example 56, (5-Methyl-isoxazol-4-yl)-[(S)-3-(3-phenyl-[1,2,4]oxadiazol-5-yl)-piperidin-1-yl]-methanone]
< 5.00 | O=C(c1ccc(F)cc1)N1CCC[C@H](c2nc(-c3cnccn3)no2)C1 [Example 57, (4-Fluoro-phenyl)-[(S)-3-(3-pyrazin-2-yl-[1,2,4]oxadiazol-5-yl)-piperidin-1-yl]-methanone]
> 6.00 | O=C(c1ccc(F)cc1F)N1CCC[C@H](c2nc(-c3ccccc3)no2)C1 [Example 59, (2,4-Difluoro-phenyl)-[(S)-3-(3-phenyl-[1,2,4]oxadiazol-5-yl)-piperidin-1-yl]-methanone]
> 6.00 | O=C(c1ccc(F)cc1F)N1CCC[C@H](c2nc(-c3ccccc3F)no2)C1 [Example 60, (2,4-Difluoro-phenyl)-{(S)-3-[3-(2-fluoro-phenyl)-[1,2,4]oxadiazol-5-yl]-piperidin-1-yl}-methanone]
> 6.00 | Cc1oncc1C(=O)N1CCC[C@H](c2nc(-c3ccccc3F)no2)C1 [Example 61, {(S)-3-[3-(2-Fluoro-phenyl)-[1,2,4]oxadiazol-5-yl]-piperidin-1-yl}-(5-methyl-isoxazol-4-yl)-methanone]
> 6.00 | O=C(c1ccc(F)nc1)N1CCC[C@H](c2nc(-c3ccccc3)no2)C1 [Example 62, (6-Fluoro-pyridin-3-yl)-[(S)-3-(3-phenyl-[1,2,4]oxadiazol-5-yl)-piperidin-1-yl]-methanone]
5.00 to 6.00 | Cc1cc(F)ccc1C(=O)N1CCC[C@H](c2nc(-c3ccccc3)no2)C1 [Example 63, (4-Fluoro-2-methyl-phenyl)-[(S)-3-(3-phenyl-[1,2,4]oxadiazol-5-yl)-piperidin-1-yl]-methanone]
> 6.00 | O=C(c1ccc(F)nc1)N1CCC[C@H](c2nc(-c3ccccc3F)no2)C1 [Example 64, {(S)-3-[3-(2-Fluoro-phenyl)-[1,2,4]oxadiazol-5-yl]-piperidin-1-yl}-(6-fluoro-pyridin-3-yl)-methanone]
5.00 to 6.00 | Cc1oncc1C(=O)N1CCC[C@H](c2nc(-c3ccc(F)cc3F)no2)C1 [Example 65, {(S)-3-[3-(2,4-Difluoro-phenyl)-[1,2,4]oxadiazol-5-yl]-piperidin-1-yl}-(5-methyl-isoxazol-4-yl)-methanone]
> 6.00 | O=C(c1ccc(F)nc1)N1CCC[C@H](c2nc(-c3ccc(F)cc3F)no2)C1 [Example 66, {(S)-3-[3-(2,4-Difluoro-phenyl)-[1,2,4]oxadiazol-5-yl]-piperidin-1-yl}-(6-fluoro-pyridin-3-yl)-methanone]
5.00 to 6.00 | Cc1cc(F)ccc1C(=O)N1CCC[C@H](c2nc(-c3ccc(F)cc3F)no2)C1 [Example 67, {(S)-3-[3-(2,4-Difluoro-phenyl)-[1,2,4]oxadiazol-5-yl]-piperidin-1-yl}-(4-fluoro-2-methyl-phenyl)-methanone]
> 6.00 | O=C(c1ccc(F)c(F)c1)N1CCC[C@H](c2nc(-c3ccc(F)cc3F)no2)C1 [Example 68, (3,4-Difluoro-phenyl)-{(S)-3-[3-(2,4-difluoro-phenyl)-[1,2,4]oxadiazol-5-yl]-piperidin-1-yl}-methanone]
5.00 to 6.00 | O=C(c1ccc(F)cc1F)N1CCC[C@H](c2nc(-c3ccc(F)cc3F)no2)C1 [Example 69, (2,4-Difluoro-phenyl)-{(S)-3-[3-(2,4-difluoro-phenyl)-[1,2,4]oxadiazol-5-yl]-piperidin-1-yl}-methanone]
5.00 to 6.00 | O=C(c1ccc(F)cc1F)N1CCC[C@H](c2nc(-c3ccccn3)no2)C1 [Example 70, (2,4-Difluoro-phenyl)-[(S)-3-(3-pyridin-2-yl-[1,2,4]oxadiazol-5-yl)-piperidin-1-yl]-methanone]
5.00 to 6.00 | Cc1cc(F)ccc1C(=O)N1CCC[C@H](c2nc(-c3ccccc3F)no2)C1 [Example 71, (4-Fluoro-2-methyl-phenyl)-{(S)-3-[3-(2-fluoro-phenyl)-[1,2,4]oxadiazol-5-yl]-piperidin-1-yl}-methanone]
5.00 to 6.00 | Cc1ncc(-c2noc([C@H]3CCCN(C(=O)c4ccc(F)cc4)C3)n2)s1 [Example 72, (4-Fluoro-phenyl)-{(S)-3-[3-(2-methyl-thiazol-5-yl)-[1,2,4]oxadiazol-5-yl]-piperidin-1-yl}-methanone]
< 5.00 | Cc1ncc(-c2noc([C@H]3CCCN(C(=O)c4ccc(F)nc4)C3)n2)s1 [Example 73, (6-Fluoro-pyridin-3-yl)-{(S)-3-[3-(2-methyl-thiazol-5-yl)-[1,2,4]oxadiazol-5-yl]-piperidin-1-yl}-methanone]
5.00 to 6.00 | Cc1ncc(-c2noc([C@H]3CCCN(C(=O)c4ccc(F)cc4F)C3)n2)s1 [Example 74, (2,4-Difluoro-phenyl)-{(S)-3-[3-(2-methyl-thiazol-5-yl)-[1,2,4]oxadiazol-5-yl]-piperidin-1-yl}-methanone]
5.00 to 6.00 | Cc1ncc(-c2noc([C@H]3CCCN(C(=O)c4ccc(F)c(F)c4)C3)n2)s1 [Example 75, (3,4-Difluoro-phenyl)-{(S)-3-[3-(2-methyl-thiazol-5-yl)-[1,2,4]oxadiazol-5-yl]-piperidin-1-yl}-methanone]
5.00 to 6.00 | O=C(c1ccc(OC(F)(F)F)cc1)N1CCC[C@H](c2nc(-c3ccc(F)cc3)no2)C1 [Example 76, {(S)-3-[3-(4-Fluoro-phenyl)-[1,2,4]oxadiazol-5-yl]-piperidin-1-yl}-(4-trifluoromethoxy-phenyl)-methanone]

System: not given
Test: not given
Conditions: not given

melting point [°C] | Structure (SMILES)
138 to 140 | O=C(c1ccc(F)cc1)N1CCC=C(c2nc(-c3ccc(F)cc3)no2)C1 [Example 1, (4-Fluoro-phenyl)-{5-[3-(4-fluoro-phenyl)-[1,2,4]oxadiazol-5-yl]-3,6-dihydro-2H-pyridin-1-yl}-methanone]
158 to 162 | O=C(c1ccc(F)cc1)N1CCCC1Cc1nc(-c2ccc(F)cc2)no1 (stereo not drawn) [Example 2, (4-Fluoro-phenyl)-{2-[3-(4-fluoro-phenyl)-[1,2,4]oxadiazol-5-ylmethyl]-pyrrolidin-1-yl}-methanone]
144 to 146 | N#Cc1cc(C(=O)N2CCC[C@H](c3nc(-c4ccc(F)cc4)no3)C2)ccc1F [Example 3, 2-Fluoro-5-{(S)-3-[3-(4-fluoro-phenyl)-[1,2,4]oxadiazol-5-yl]-piperidine-1-carbonyl}-benzonitrile]
139 to 141 | O=C(C1CCSCC1)N1CCC[C@H](c2nc(-c3ccc(F)cc3)no2)C1 [Example 7, {(S)-3-[3-(4-Fluoro-phenyl)-[1,2,4]oxadiazol-5-yl]-piperidin-1-yl}-(tetrahydro-thiopyran-4-yl)-methanone]
